{"source": "patent US20250262167A1", "about": "“COMPOUNDS, TARGETS AND PATHWAYS FOR MACROPHAGE MODULATION” (Massachusetts Institute of Technology, priority 2020, published 2025)", "key": {"[1]": {"system": "hMDMs differentiated into M1 by IFNγ plus TNFα", "experiment": "Reprogramming screen and dosage response on M1-like differentiated macrophages", "format": "cell-based, human", "conditions": "Homo sapiens, Macrophage, 24 h; M2-activating compounds on M1-like macrophages (IFNγ plus TNFα); EC = concentration reaching Z-score cutoff", "quoted_text": "Data were summarized from 3 independent experiments.\n(§1) Human macrophages were seeded into optical 384-well plates. Sixteen hours later, medium in M1 plates were replaced by M1 differentiating medium (complete RPMI with 50 ng/mL IFNγ and 50 ng/mL TNFα) and medium in M2 plates by M2 differentiating medium (complete RPMI with 5 ng/mL IL-4 and 5 ng/mL IL-13). After 24 hrs cell differentiation, M1 plates (M1 macrophages) and M2 plates (M2 macrophages) were treated with M2-activating compounds and M1-activating compounds respectively for 24 hrs. Two independent experiments were performed with or without replacing differentiating medium right before treatment. Cell imaging and analysis were performed as indicated above.\nTo investigate whether the identified compounds could reprogram or reactivate macrophages after M1- or M2-like differentiation, we rescreened the hits on M1- or M2-activated macrophages. hMDMs were activated into M2-like macrophages by IL-4 plus IL-13 or M1-like macrophages by IFNγ plus TNFα. […] 24 hours later, cell images were taken and cell shapes were quantified.\n(§2) We also rescreened the hits on differentiated macrophages in the presence of differentiating cytokines: either IL-4 plus IL-13 or IFNγ plus TNFα."}, "[2]": {"system": "M1-like and M2-like differentiated hMDMs", "experiment": "RNA-seq of differentiated macrophages reprogrammed by compounds", "format": "cell-based, human", "conditions": "compound at EC, 24 hours", "method": "FIGS. 4A-4F show reprogramming of differentiated macrophages by selected compounds. […] Controls include two differentiated M1 and M2 macrophages, M2 macrophages treated with IFNγ and M1 macrophages treated with IL-4. Gene expression in each sample was measured by RNA-seq separately. […] FIG. 4D show network of GO enriched terms using BiNGO on top 10% central hubs genes (n=1255) of macrophage activation network. Node color and size represent the FDR values of enriched GO terms. […] Shared (FIG. 4E) and unique pathways (FIG. 4F) are shown. Compound targets and FDA-approval information are indicated. […]\nDifferentially expressed genes were annotated using online functional enrichment analysis tool DAVID (http://david.ncifcrf.gov/). […] To quantify the levels of RNA transcripts, total RNA was extracted from various cells and reverse transcribed by TaqMan® Reverse Transcription Reagents Kit (ABI Catalog No. N8080234), followed by amplification with Sybr Green Master Mix (Roche Catalog No. 04707516001) with specific primers (Table 4) and detected by Roche LightCycler 480. […]\nTo determine the central hubs of all stimulation conditions by compounds (refer to FIG. 4) reflecting the core macrophage activation network, transcriptional interactions between genes were first determined by ARACNe based on the perturbed transcriptional profiles of 34 compounds as well as IFNγ and IL4 controls. […]"}, "M0 macrophages (hMDMs)": {"system": "M0 macrophages (hMDMs)", "experiment": "Dosage response of cell shape change on M0 macrophages", "format": "cell-based, human", "conditions": "M0 macrophages"}, "[3]": {"system": "hMDMs differentiated into M2 by IL-4 plus IL-13", "experiment": "Reprogramming screen and dosage response on M2-like differentiated macrophages;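 on all read-outs here: human monocyte-derived macrophages held 24 h in 5 ng/mL IL-4 plus IL-13 before 24 h compound exposure, with cell shape measured from images in 384-well plates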", "quoted_text": "Shown are comparison of Z-scores between 5 μM or 10 μM of compounds. […] Shown are comparison of Z-scores between 5 μM or 10 μM of compounds. […] EC and fitness of 21 M1-polarizing (triangle) and 19 M2-polarizing compounds (circle) were calculated by the Michaelis-Menten equation and plotted. Data were summarized from 3 independent experiments.\nas §1\nTo investigate whether the identified compounds could reprogram or reactivate macrophages after M1- or M2-like differentiation, we rescreened the hits on M1- or M2-activated macrophages. hMDMs were activated into M2-like macrophages by IL-4 plus IL-13 or M1-like macrophages by IFNγ plus TNFα. After removing the differentiating cytokines, M2-like macrophages were treated with each of the 166 M1-activating compounds and M1-like macrophages were treated with each of the 180 M2-activating compounds at a final concentration of either 5 μM and 10 μM. 24 hours later, cell images were taken and cell shapes were quantified. […] Dosage responses were carried out with 40 commercial available compounds (21 M1-activating and 19 M2-activating) on polarized macrophages.\nas §2"}, "[4]": {"system": "ImKCs (immortalized line of mouse Kupffer cells)", "experiment": "Seahorse ECAR/OCR (glycolysis, OxPhos) in ImKCs", "format": "cell-based", "conditions": "ImKCs, S1P 3 mM, 24 hrs", "method": "Shown are representative data of three independent experiments. […] Data are presented as the mean±sd (n=4).\nFIGS. 21A-21I show DPI stimulates glycolysis through GPR3 and β-arrestin2. FIGS. 21A-21B show DPI-stimulated glycolysis is independent of the NOX activity. […] The mean fluorescence intensity (MFI) of 2-NBDG in cells was measured by flow cytometry and normalized to DMSO controls of wildtype BMDMs. Data are presented as the mean±sd (n=3). […] ImKCs were transfected with siRNA specific for Gpr3 or a scramble siRNA as control. […] Data are presented as the mean±sd (n=4). […] Data are presented as the mean±sd (n=12). […] Abbr2^−/− ImKC were constructed by CRISPR-Cas9-mediated gene editing. […] Data are presented as the mean±sd (n=4). […] ImKCs were transfected with Abbr2-GFP fusion gene and stimulated with DMSO, DPI (50 nM), or S1P (3 mM). The GFP signal was captured with a TIRF microscope at indicated time points. Shown are representative data of GFP signal at 0 min and 10 min, and merged signal from three independent experiments.\nSpecific parameters for glycolytic capacity and glycolytic reserve were calculated and summarized based on two independent experiments. […] The GFP signal was captured with a TIRF microscope at indicated time points. Shown are representative data of GFP signal at 0 min and 10 min, and the merged signal from three independent experiments.\nOCR and ECAR were measured in isolated tissues or cultured ImKCs using the Seahorse XFe Extracellular Flux Analyzer (Agilent). For tissue respiration assays, 1.0 mg adipose tissue was dissected from inguinal WAT depots by using a surgical biopsy instrument (Integra Miltex Standard Biopsy Punches, Thermo Fisher) and placed into XF96 Islet Capture Microplates and pre-incubated with XF assay medium with pH value at 7.4. XF assay medium supplemented with 1 mM sodium pyruvate, 2 mM GlutaMax™-I, and 25 mM glucose. Isolated MDMs or Kupffer cells were subjected to a mitochondrial stress test by adding oligomycin (2 μM) followed by carbonyl cyanide 4-(trifluoromethoxy), phenylhydrazone (FCCP, 5 μM), and antimycin (1 μM). For glucose stress assay and ECAR measurement, XF assay medium was supplemented only with GlutaMax™-I. Tissue or cells were subjected to a glucose stress test by adding highly concentrated glucose (for tissue, 25 mM; for cells, 10 mM), followed by adding oligomycin (5 μM), FCCP (5 μM), and 2-DG (50 mM). Cells were seeded in culture dishes, and the medium was changed after 6 hours with serum-free DMEM. Cells were incubated for 12-16 hours, and the culture medium was then collected for measurement of glucose and lactate concentrations. Glucose levels were determined using a glucose (GO) assay kit (Sigma). Glucose consumption was the difference in glucose concentration when compared with DMEM. Lactate levels were determined using a lactate assay kit (Eton Bioscience).\nDPI is an agonist of GPR3 and an inhibitor of […] oxidase (NOX). We first determined the requirement of NOX in DPI-stimulated glycolysis.\nTo determine the requirement of GPR3, we knocked down GPR3 by siRNA (siGpr3) in ImKCs.\nβ-arrestin2, encoded by Arrb2, has been reported to bind to GPR3 and is required for GPR3 signaling. To investigate the requirement of 0-arrestin2 in DPI-stimulated glycolysis, we constructed Arrb2^−/− ImKCs using CRISPR-Cas9 mediated gene editing (FIG. 28F)."}, "[5]": {"system": "human monocyte-derived macrophages (hMDMs)", "experiment": "High throughput phenotypic screen of macrophage activation (cell shape, Z-score);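 further: phalloidin and DAPI stained hMDMs imaged by high-content microscopy, cell eccentricity compared with DMSO control by T-test, round morphology scored negative, elongated positive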", "format": "cell-based", "conditions": "known M1-/M2-activating stimuli", "quoted_text": "The Z-score was calculated by T-test to measure the difference of cell morphology between treatment and control. Stimuli had negative Z-scores when induced cells to round morphology and positive scores when induced cells to elongated morphology. […] Equally mixed human monocytes isolated from fresh blood of 4 healthy donors were cultured in vitro with 50 ng/mL M-CSF for 7 days. hMDMs were trypsinized and plated on 384-well plates (5000 cells/well in 50 μL). Cells were recovered in 10 ng/mL M-CSF for 16 hrs and then treated with compounds for 24 hrs. Cells were washed, fixed and stained with Phalloidin and DAPI. The plates were scanned with a high-content microscope with six-fields per well to quantify the cell number and cell morphology. […] The cell eccentricity was calculated to measure the cell morphology. The Z-score was calculated by T-test to measure the difference in cell morphologies between each compound and DMSO control.\nCells were treated with a library of over 4000 individual compounds or drugs at the final concentration of 20 μM using the CyBi-Well simultaneous pipettor (CyBio). […] After 24 hr incubation, supernatants were removed using the microplate washer (Bioteck) and cells were fixed by adding 50 μL 16% paraformaldehyde (Thermo Scientific) with the dispenser for 20 minutes. Cells were then washed with 50 μL 1×PBS twice and incubated for 20 minutes with NucBlue and AF746 Phalloidin (Invitrogen) to stain nucleus and cytoskeleton. Cells were then washed with 50 μL 1×PBS twice and maintained in PBS for the image acquirement. Plates were read in the Opera Phenix high content screening system (PerkinElmer) to photograph cells using 20× objective in 2 fluorescent channels (Blue and FarRed). A total of 6 different fields in each well and an average of 1,000 cells were imaged per well. CellProfiler was used to identify each cell by overlapping signals from its nucleus and cytoskeleton, and calculate the eccentricity as the parameter to measure the cell morphology. The Z-score was calculated by T-test to measure the difference of cell morphology between each treatment and control. For each row of the 384-well plate, total 4 wells with first and last two columns treated with the same concentration of DMSO were combined as the control for the other 20 treatment wells in that row. In the meantime, classic M1 and M2 stimuli were added to generate the gold-standard Z-score cutoffs with M1 or M2 activation. Classic M1 stimuli include LPS (100 ng/mL), IFNγ (50 ng/mL, Peprotech), TNFα (50 ng/mL, Peprotech), or IFNγ plus TNFα. Classic M2 stimuli include IL-10 (10 ng/mL, Peprotech), IL-4 (10 ng/mL, Peprotech), or IL-13 (5 ng/mL, Peprotech)."}, "hMDMs": {"system": "hMDMs", "experiment": "Flow cytometry of M1 markers (CD80, CD86) and M2 markers (CD206, CD163) in hMDMs", "format": "cell-based, human", "conditions": "24 hrs", "method": "FIGS. 7A-7B show morphology and phenotypes of activated macrophages. […] The resulting macrophages were polarized to M1 by IFNγ or M2 by IL4. Then, M1 macrophages were treated with M2-type compound bosutinib ([…]) for 24 hrs, and M2 macrophages were treated with M1-type compound thiostrepton ([…]) for 24 hrs. F-actin was stained and images were acquired by fluorescent microscopy with 60× objective. Cell nuclei are stained with DAPI. Representative data were shown from two independent experiments. […] Shown are the representative staining profiles from three independent experiments. The numbers show mean fluorescent intensity (MFI)+/−standard error of the mean (SEM) for n=3 samples per group.\nFIGS. 9A-9C show comparison of the differentially expressed genes induced by selected compounds (FIG. 9A), ligands for novel pathways (FIG. 9B), and controls (IL-4 and IFNγ). […] Shown are the changes of the relative mean fluorescence intensity (MFI) to controls. 0.2 refers to 20% MFI increase.\nB6 mice were purchased from the Jackson Laboratory and maintained in the animal facility at the Massachusetts Institute of Technology (MIT). NSG mice were purchased from the Jackson Laboratory and maintained under specific pathogen-free conditions in the animal facilities at MIT. […] The data were analyzed by FlowJo. […]"}}, "note": "Structures can show the parent of a compound that is named as a salt."}
{"compound": "C(=N\\NC1=NCCN1)/c1c2ccccc2c(/C=N/NC2=NCCN2)c2ccccc12", "note": "[Bisantrene dihydrochloride]", "values": [{"measurement": "EC (M2 Z-score cutoff)", "setting": "[1]", "result": 1.98, "unit": "µM"}, {"measurement": "unique pathway perturbed", "setting": "[2]", "result": "perturbed the pathway of DNA topological change"}]}
{"compound": "Nc1ccccc1NC(=O)c1ccc(CNC(=O)OCc2cccnc2)cc1", "note": "[MS275]", "values": [{"measurement": "Category", "setting": "M0 macrophages (hMDMs)", "result": "M1 (−4 for M1-activated macrophages)"}, {"measurement": "EC", "setting": "M0 macrophages (hMDMs); EC = concentration inducing cell morphology changes to reach the M1 or M2 Z-score cutoff, Michaelis-Menten fit, 3 independent experiments, unit of the source corrected", "result": 1.05, "unit": "µM"}, {"measurement": "Max absolute Z-value", "setting": "M0 macrophages (hMDMs); Max Z-score from Michaelis-Menten equation, negative = round, positive = elongated", "result": "−7.993"}, {"measurement": "unique pathway perturbed", "setting": "[2]", "result": "perturbed the pathway of chromatin assembly"}, {"measurement": "EC", "setting": "[3]; M1-activating compounds on M2-like macrophages (IL-4 plus IL-13), EC = concentration reaching Z-score cutoff", "result": 0.811, "unit": "µM"}, {"measurement": "Category", "setting": "[3]; differentiated macrophages", "result": "M1 (−4 for M1-activated macrophages)"}]}
{"compound": "CCCCCCCCCCCCC/C=C/[C@@H](O)[C@@H](N)COP(=O)(O)O", "note": "[S1P, sphingosine-1-phosphate]", "values": [{"measurement": "glycolysis", "setting": "[4]", "result": "significant increase"}]}
{"compound": "IFNγ: classic M1 stimulus", "values": [{"measurement": "cell shape induced", "setting": "[5]", "result": "round shape"}, {"measurement": "expression of M1 markers CD80 and CD86", "setting": "hMDMs", "result": "up-regulated"}, {"measurement": "expression of M2 markers CD206 and CD163", "setting": "hMDMs", "result": "suppressed"}]}
